One may read the AC50 as the concentration giving half of the maximal activity seen.

The text below walks through data of PubChem BioAssay AID977618 (Broad Institute, 2014).

“And” between values parts separate entries of the source, which are not always exact repeats. Identical values can stand only once. The source made the active and inactive calls.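 Rule for the calls: active = compounds lowering the cell ATP signal with fitted AC50 at most twice the top tested dose; inconclusive = flat fit between -70 and -30, or a poor fit; inactive = the rest.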

Tested on in one assay: not listed separately
Description: viability loss in HEK293T cells – cell-based, CellTiter-Glo luminescence, dry powder, set 16, cytotoxicity control, dose response (AID 977618). The following applies: HEK293T viability, CellTiter-Glo ATP luminescence, 72 h; at 30 µM (top of the series). For orientation: ATP-based viability assays read luminescence as a measure of living cells.
For `CN(C)S(=O)(=O)c1ccc(N2CCCC2)c(C(=O)Nc2ccc(Br)cc2)c1`, the activity change, negative = cytotoxicity is -1.97% (inactive).
As for `CCN(CC)c1ccc(S(=O)(=O)N(C)C)cc1C(=O)Nc1ncc(C)s1`, the activity change, negative = cytotoxicity was -18.6% (inactive).
`CN(C)S(=O)(=O)c1ccc(N2CCCC2)c(C(=O)Nc2ccncc2)c1`: the activity change, negative = cytotoxicity is -8.58% (inactive).
Turning to `CN(C)CCCN(Cc1cc2ccccc2[nH]c1=O)C(=O)NCc1ccccc1`, the activity change, negative = cytotoxicity is -7.51% (inactive).
Consider `Cc1nnc(NC(=O)c2cc(S(=O)(=O)N(C)C)ccc2N2CCCC2)s1`, for which the activity change, negative = cytotoxicity was -7.43% (inactive).
With `CCN(CC)S(=O)(=O)c1ccc(N2CCCC2)c(C(=O)Nc2ncc(C)s2)c1`, the activity change, negative = cytotoxicity is -2.95% (inactive).
Regarding `Cc1cnc(NC(=O)c2cc(S(=O)(=O)N(C)C)ccc2N2CCCC2)s1`, the activity change, negative = cytotoxicity was 8.71% (inactive) and 10.8% (inactive).
Consider `Cc1cnc(NC(=O)c2cc(S(=O)(=O)N(C)c3ccccc3)ccc2N2CCCC2)s1`, for which the activity change, negative = cytotoxicity is 1.78% (inactive).
Regarding `CN(C)C(=O)c1cc(S(=O)(=O)N(C)C)ccc1N1CCCC1`, the activity change, negative = cytotoxicity is 0.495% (inactive).
Consider `Cc1cnc(NC(=O)c2cc(S(=O)(=O)NCc3ccccc3)ccc2N2CCCC2)s1`, for which the activity change, negative = cytotoxicity is -10.3% (inactive).
In the case of `Cc1cnc(NC(=O)c2cc(S(=O)(=O)N3CCOCC3)ccc2N2CCCC2)s1`, the activity change, negative = cytotoxicity was 9.35% (inactive).
Regarding `COc1cccc2sc(NC(=O)c3cc(S(=O)(=O)N(C)C)ccc3N3CCCC3)nc12`, the activity change, negative = cytotoxicity is -4.26% (inactive).
For `CN(C)S(=O)(=O)c1ccc(N2CCCC2)c(C(=O)NC2CCCCC2)c1`, the activity change, negative = cytotoxicity was -11.1% (inactive).
For `CN(C)S(=O)(=O)c1ccc(N2CCCC2)c(C(=O)Nc2cccc(F)c2)c1`, the activity change, negative = cytotoxicity is -5.2% (inactive).
As for `COc1ccccc1NC(=O)c1cc(S(=O)(=O)N(C)C)ccc1N1CCCC1`, the activity change, negative = cytotoxicity was -2.97% (inactive).
Take `Cc1cnc(NC(=O)c2cc(S(=O)(=O)N(C)C)ccc2C2CCCC2)s1`: the activity change, negative = cytotoxicity was -1.05% (inactive).
On to `Cc1cnc(NC(=O)c2cc(S(=O)(=O)N3CCCCC3)ccc2N2CCCC2)s1`, for which the activity change, negative = cytotoxicity is 1.32% (inactive).
With `CN(C)S(=O)(=O)c1ccc(N2CCCC2)c(C(=O)Nc2cccnc2)c1`, the activity change, negative = cytotoxicity was 3.26% (inactive).
On the same count and under the same terms, then `CN(C)S(=O)(=O)c1ccc(N2CCCC2)c(C(=O)Nc2nccs2)c1`, with -6.06% (inactive).
For the molecule `CN(C)S(=O)(=O)c1ccc(N2CCCC2)c(C(=O)Nc2ccccc2F)c1`, the activity change, negative = cytotoxicity was -17.6% (inactive).
As for `CN(C)S(=O)(=O)c1ccc(N2CCCC2)c(C(=O)Nc2ccccc2Cl)c1`, the activity change, negative = cytotoxicity was -6.21% (inactive).
For `Cc1csc(NC(=O)c2cc(S(=O)(=O)N(C)C)ccc2N2CCCC2)n1`, the activity change, negative = cytotoxicity was -4.9% (inactive).
Regarding `Cc1cnc(NC(=O)c2cc(S(=O)(=O)N3CCCC3)ccc2N2CCCC2)s1`, the activity change, negative = cytotoxicity is 16.8% (inactive).
On the same count and under the same terms, then `Cc1nc(NC(=O)c2cc(S(=O)(=O)N(C)C)ccc2N2CCCC2)n[nH]1`, with -1.85% (inactive).
Still for that read-out and setting: the result for `Cc1cnc(NC(=O)c2cc(S(=O)(=O)N(C)C)ccc2N2CCC2)s1` reads -5.02% (inactive); that for `Cc1cnc(NC(=O)c2cc(S(=O)(=O)N(C)C)ccc2N2CCCCC2)s1`, -9.94% (inactive).
On to `COc1ccc(NC(=O)c2cc(S(=O)(=O)N(C)C)ccc2N2CCCC2)cc1`, for which the activity change, negative = cytotoxicity is -3.02% (inactive).
For `Cc1cnc(NC(=O)c2cc(S(=O)(=O)N(C)C)ccc2N(C)C)s1`, the activity change, negative = cytotoxicity was -10% (inactive).
As to `Cc1cnc(NC(=O)c2cc(S(=O)(=O)N3CCNCC3)ccc2N2CCCC2)s1`, the activity change, negative = cytotoxicity is -12.1% (inactive).
As for `COc1ccc2nc(NC(=O)c3cc(S(=O)(=O)N(C)C)ccc3N3CCCC3)sc2c1`, the activity change, negative = cytotoxicity was -3.18% (inactive).
Still for that read-out and setting: the result for `Cc1cnc(NC(=O)c2cccc(S(=O)(=O)N(C)C)c2)s1` reads -1.48% (inactive).
For `CN(C)S(=O)(=O)c1ccc(N2CCCC2)c(C(=O)N2CCOCC2)c1`, the activity change, negative = cytotoxicity is -15.1% (inactive).
On to `Cc1ccc(NC(=O)c2cc(S(=O)(=O)N(C)C)ccc2N2CCCC2)cc1`, for which the activity change, negative = cytotoxicity is -11.3% (inactive).
`CN(C)S(=O)(=O)c1ccc(N2CCCC2)c(C(=O)Nc2nc3ccccc3s2)c1`: the activity change, negative = cytotoxicity is 8.82% (inactive).
As to `CN(C)S(=O)(=O)c1ccc(N2CCCC2)c(C(=O)Nc2ccccc2)c1`, the activity change, negative = cytotoxicity is -5.37% (inactive).
Still for that read-out and setting: the result for `Cc1ccccc1NC(=O)c1cc(S(=O)(=O)N(C)C)ccc1N1CCCC1` reads -9.68% (inactive).
`COc1ccc2sc(NC(=O)c3cc(S(=O)(=O)N(C)C)ccc3N3CCCC3)nc2c1`: the activity change, negative = cytotoxicity is 1.94% (inactive).
Take `Cc1cnc(NC(=O)c2cc(S(=O)(=O)N(C)C)ccc2N2CCNCC2)s1`: the activity change, negative = cytotoxicity is -1.97% (inactive).
As for `CN(C)CCCN(Cc1cc2ccccc2[nH]c1=O)C(=O)Nc1ccccc1`, the activity change, negative = cytotoxicity was -4.05% (inactive).

The subject of the next assay is HEK293T viability, CellTiter-Glo ATP luminescence, 72 h. Described as above.
Conditions: not given
In the case of `Cc1cnc(NC(=O)c2cc(S(=O)(=O)N(CC(C)C)CC(C)C)ccc2N2CCCC2)s1`, the AC50 was > 60 µM (inactive).
